The record followed here is patent US20120232062A1, “AZAINDAZOLES TO TREAT FLAVIVIRIDAE VIRUS INFECTION” (EIGER BIOPHARMACEUTICALS, INC., priority 2009, published 2012).

The test system of this assay is HCV genotype 1b. In words: HCV 1b replicon luciferase assay. It is filed as cell-based. An excerpt: A suitable 1b HCV RNA replicon assay uses the Huh7 cell line which contains an HCV 1b RNA replicon with a stable luciferase (LUC) reporter. This construct contains modifications that make the cell line more robust and provides stable LUC expression for antiviral screening. The LUC reporter is used as an indirect measure of HCV replication. The activity of the LUC reporter is directly proportional to HCV RNA levels and positive control antiviral compounds behave comparably using LUC endpoints. […]
Fresh growth medium is prepared just before use. The container used in the procedure is a 10 cm diameter culture dish. HCV replicon reporter cell lines are used. Prepare complete medium: add FBS and appropriate additives as described in “Culture Media”, below. Pre-warm the medium in a 37° C. thermostat water bath. Remove the dish from a 37° C. CO2 incubator. Check the cell name and complete medium and passage number marked on the dish. Aspirate the medium carefully and add 1 ml PBS to rinse the cells. Remove and discard the solution and add 1 ml of 0.25% Trypsin/0.02% EDTA. Rinse the cells with the added Trypsin/EDTA to ensure all the cells have been rinsed. Remove the Trypsin/EDTA with a vacuum pump and incubate at 37° C. for 3-5 minutes. Examine the cell morphology under an inverted microscope to confirm that a single cell suspension is clearly visible. Add 3 ml of complete medium to the dish and suspend the cell by gentle pipetting. Count the cell numbers with a hematometer. Adjust cell density to 100 k/ml by adding appropriate volume of the complete medium. Add 100 μl of cell suspension to each well of a 96-well white plate; the cell density is thus 10 k per well. Mark the plate with cell name, passage number, seeding density, date and the name of the operator. Place the 96-well assay plate in 37° C. 5% CO2 incubator for 24 hours.
Compounds are prepared or provided at 25 mM in 100% DMSO. This is the compound stock solution. The dilution procedure should be performed in a cell culture hood. Dispense the stock solution into the second column of a 96-well plate. Prepare 9-step (10 concentrations total), 5-fold serial dilutions by transferring 10 μA of the compound into the next well containing 40 μA of DMSO. Repeat for all compounds. Aspirate 2 μl of the above compound solution from each well and add into 198 μl complete media using a 12-channel pipetter to obtain the 10-fold concentration compound solution with 1% DMSO, mix well.
Remove the 96-well assay plate from the 37° C./5% CO2 incubator, examine the cell morphology under an inverted microscope. In a cell culture hood, add 10 μl of the 10× concentration compounds solution into each well on the 96-well assay plate. All compound's dose responses are done in duplicate. The starting final concentration of the compounds is 25 μM, and DMSO final concentration 0.1%. Mark the plate with compound code(s) and concentrations. Place the 96-well assay plate into CO2 incubator for 48 hours. Add 30 μl of Stead-Glo Luciferase System (Promega) reagent to each well and mix by gentle shaking on a plate shaker for 5 minutes to allow throughout cell lysis. Measure the luminescence with Envision (Perkin Elmer) with an integration time of 2 seconds. Record and analyze the data.
The cell culture media is DMEM complete: DMEM (Life Technologies #41965-039) supplemented with 10% FCS, 2 mM Glutamin (Life Technologies #25030-024), Penicillin (100 IU/ml)/Streptomycin (100 μg/ml) (Life Technologies #15140-114) and 1× nonessential amino acids (Life Technologies #11140-035). G418 (“Geneticin”, Life Technologies): concentrations are given as weight per volume of the original substance. Specific activity of a typical batch is ca. 700 μg/mg as stated by the manufacturer. […] Therefore each new batch of G418 should be tested individually e.g. in an electroporation experiment using different selection conditions (0.2-1 mg/ml).
(Replicon systems follow genome replication, usually without infectious particles.)

The mark [1] stands for this setting: Hepatitis C virus, Huh-7, 48 h, Table 1, Huh7 HCV 1b replicon, luciferase reporter, 48 hours, read-out: 1b EC50.
The mark [2] stands for this setting: Hepatitis C virus, 48 h, read-out: EC50 in the 48 hour 1b replicon assay, 48 hour.
The mark [3] stands for this setting: Table 1, Huh7 HCV 1b replicon, luciferase reporter, 48 hours, read-out: 1b EC50.

Read-outs that look alike come from different tables or passages of the source. Bounds are passed on as bounds.

By EC50 is commonly meant the concentration that produces a half-maximal response. As to `Cn1nc(C(=O)N[C@H]2CCNC2)c2ccc(N3CCCCCC3)nc21` [compound 822], the EC50 under setting [1] turned out to be 4300 nM.
The same measure, in the same setting: in the case of `O=C(NC1CCNCC1)c1nn(S(=O)(=O)C2CCCCC2)c2nc(N3CCCCCC3)ccc12` [compound 988] it was 5400 nM; in that of `CC1CCCCC1Oc1ccc2c(C(=O)NC3CCNCC3)nn(C)c2n1` (centres unmarked) [compound 878], 2800 nM.
On the same count and under the same terms, for `O=C(/C=C/c1cccnc1)Nc1nn(Cc2ccc(Cl)cc2)c2nc(N3CCCCCC3)ccc12` [compound 747] the value was 9000 nM; for `Cn1nc(-c2cnc(C3CCN(CC4CCCCC4)C3)s2)c2ccc(N3CCCCCCC3)nc21` (centres unmarked) [compound 1268], 580 nM.
Still for that read-out and setting: in the case of `CN(c1ccc2c(C(=O)NC3CCNCC3)nn(C)c2n1)C1CCCCCCC1` [compound 893] it was 1100 nM.
As to `Cn1nc(C(=O)NC2CCN(CCO)CC2)c2ccc(N3CCCCCC3)nc21` [compound 1598], the EC50 under setting [1] came to 2700 nM.
`Cn1nc(CCCN2C[C@@H](O)[C@@H](O)C2)c2ccc(N3CCCCCCC3)nc21` [compound 1495]: under setting [1], the EC50 is 4700 nM.
Consider `O=C(NC1CCNCC1)c1nn2c3nc(ccc13)OC/C=C/CCCCC2` [compound 877], for which the 50% effective concentration (EC50) under setting [1] is 3300 nM.
Turning to `Cn1nc(C(=O)NC2CCN(CC3CC3)CC2)c2ccc(N3CCCCCCC3)nc21` [compound 1222], under setting [1], the concentration for a half-maximal effect (EC50) turned out to be 3200 nM.
Same read-out and setting: for `Cn1nc(-c2cnc([C@@H]3CCCN3CC3CCCCC3)s2)c2ccc(N3CCCCCCC3)nc21` [compound 1264] the value was 2400 nM; for `O=C(NC1CCNC1)c1nnc2n(Cc3ccc(Cl)cc3)c(N3CCCCCC3)ccc1-2` (centres unmarked) [compound 712], 8200 nM; for `CC(C)Cn1nc(C(=O)NC2CCNCC2)c2ccc(N3CCCCCC3)nc21` [compound 852], 2900 nM.
As to `Cn1nc(NC(=O)c2ccncc2)c2ccc(N3CCCCCC3)nc21` [compound 839], the EC50 under setting [1] amounted to 2500 nM.
Same read-out and setting: for `Cn1nc(NC(=O)C2CCNCC2)c2ccc(N3CCCCCC3)nc21` [compound 1035] the value was 5700 nM; for `CN(c1ccc2c(C(=O)NC3CCNCC3)nn(C)c2n1)C1CCCCCC1` [compound 891], 1100 nM; for `Cn1nc(-c2cnc(C(=O)NCc3ccccc3)s2)c2ccc(N3CCCCCCC3)nc21` [compound 1250], 1400 nM.
Turning to `CCC(CC)Oc1ccc2c(C(=O)NC3CCNCC3)n[nH]c2n1` [EBP726], the EC50 under setting [2] was under 3000 nM.
For `Cn1nc(NC(=O)c2cccnc2)c2ccc(N3CCCCCC3)nc21` [compound 838], under setting [1], the concentration for a half-maximal effect (EC50) turned out to be 3800 nM.
On the same count and under the same terms, in the case of `Cn1nc(C(=O)NC2CCN(CC#N)CC2)c2ccc(NC3CCCCCCC3)nc21` [compound 1479] it was 920 nM.
Regarding `Cn1nc(C(=O)NC2CCN(CCN3CCCCC3)CC2)c2ccc(NC3CCCCCCC3)nc21` [compound 1468], the EC50 under setting [1] was 330 nM.
For the molecule `CC1CC(NC(=O)c2nn(C)c3nc(N4CCCCCCC4)ccc23)CCN1CCCC1CCCCC1` (centres unmarked) [compound 1153], the EC50 under setting [1] worked out at 1500 nM.
`Cn1nc(C(=O)NC2CCNCC2)c2ccc(NC3CCCCC3)nc21` [compound 862]: the EC50 under setting [1] amounted to 2600 nM.
On the same count and under the same terms, in the case of `Cn1nc(C(=O)N2CCC(N)CC2)c2ccc(N3CCCCCC3)nc21` [compound 829] it was 8700 nM; in that of `Cn1nc(C(=O)NC2CCN(CCN3CCCC3)CC2)c2ccc(NC3CCCCC3)nc21` [compound 1581], 3300 nM.
For the molecule `CC1CCC(C)N1CCCc1nn(C)c2nc(N3CCCCCCC3)ccc12` (centres unmarked) [compound 1462], the concentration giving a half-maximal response (EC50) under setting [1] turned out to be 1200 nM.
Same read-out and setting: for `COc1ccc(CN2CCC(NC(=O)c3nn(C)c4nc(N5CCCCCC5)ccc34)CC2)cc1` [compound 1044] the value was 760 nM.
On the same count and under the same terms, in the case of `Cn1nc(C(=O)NC2CCN(CC3CCOCC3)CC2)c2ccc(NC3CCCCCCC3)nc21` [compound 1476] it was 570 nM; in that of `CCC(CC)Oc1ccc2c(NC(=O)CC3CCNCC3)nn(C)c2n1` [compound 953], 6400 nM; in that of `CC(C)CN(C)c1ccc2c(C(=O)NC3CCNCC3)nn(C)c2n1` [compound 690], 1200 nM.
Still for that read-out and setting: for `O=C(N[C@H]1CCNC1)c1nn(Cc2ccc(Cl)cc2)c2nc(N3CCCCCC3)ccc12` [compound 707] the value was 3300 nM.
With `Cn1nc(C(=O)NC2CCN(CC3CC3)CC2)c2ccc(N3CCCCCCC3)nc21` [compound 1300], the EC50 under setting [3] is 2700 nM.
Turning to `Cn1nc(-c2cnc(C(=O)NCC3CCCN(CC(F)F)C3)s2)c2ccc(N3CCCCCCC3)nc21` (centres unmarked) [compound 1261], the EC50 under setting [1] was 1800 nM.
Take `Cn1nc(C(=O)NCc2cccs2)c2cc(NC3CCCCC3)cnc21` [EBP1147]: the EC50 under setting [2] is under 3000 nM.
Take `Cn1nc(C(=O)Nc2cccc(S(N)(=O)=O)c2)c2ccc(N3CCCCCC3)nc21` [compound 824]: under setting [1], the EC50 worked out at 3500 nM.
Still for that read-out and setting: in the case of `CC(C)CN(C)c1ccc2c(C(=O)NC3CCCNC3)nn(C)c2n1` (centres unmarked) [compound 686] it was 2600 nM.
On the same count and under the same terms, in the case of `Cn1nc(C(=O)NC2CCNCC2)c2ccc(OCc3ccccc3Br)nc21` [compound 1065] it was 3300 nM; in that of `Cn1nc(C(=O)NC2CCNCC2)c2ccc(OCc3ccccc3-c3cccs3)nc21` [compound 1101], 800 nM.
For the molecule `Cn1nc(C(=O)NC2CCN(CC3CCCCC3)CC2)c2ccc(N3CCCCCC3)nc21` [EBP987], the EC50 under setting [2] is under 3000 nM.
As for `Cn1nc(NC(=O)c2ccccc2C(F)(F)F)c2ccc(N3CCCCCC3)nc21` [compound 836], the concentration for a half-maximal effect (EC50) under setting [1] turned out to be 4100 nM.
`CC(c1cccc(C(F)(F)F)c1)N1CCC(NC(=O)c2nn(C)c3nc(N4CCCCCCC4)ccc23)CC1` (centres unmarked) [compound 1312]: the EC50 under setting [1] came to 2700 nM.
Same read-out and setting: in the case of `O=C(NC1CCNCC1)c1nnc2n(Cc3ccc(Cl)cc3)c(N3CCCCCC3)ccc1-2` [compound 709] it was 8700 nM.
In the case of `CC1CC(NCc2nn(C)c3nc(N4CCCCCC4)ccc23)CCN1` (centres unmarked) [EBP909], the EC50 under setting [2] was under 3000 nM.
In the case of `Cn1nc(C(=O)NC2CCNCC2)c2ccc(NC3CCCCCCC3)nc21` [compound 885], under setting [1], the EC50 was 889 nM.
On the same count and under the same terms, for `Cn1nc(-c2cnc(C3CCCN(CC4CCCCC4)C3)s2)c2ccc(N3CCCCCCC3)nc21` (centres unmarked) [compound 1255] the value was 3000 nM.
On the same count and under the same terms, for `Cn1nc(-c2cnc(C(=O)NCC3CCCCC3)s2)c2ccc(N3CCCCCCC3)nc21` [compound 1251] the value was 1000 nM; for `CCC(CC)Oc1ccc2c(NC(=O)c3ccncc3)nn(C)c2n1` [compound 939], 4700 nM.
For `Cn1nc(C(=O)NC2CC3CCCC(C2)N3)c2ccc(N3CCCCCC3)nc21` (centres unmarked) [compound 880], under setting [3], the EC50 worked out at 8100 nM.
As to `CC1CCC(Oc2ccc3c(C(=O)NC4CCNCC4)nn(C)c3n2)C(C(C)C)C1` (centres unmarked) [compound 874], under setting [1], the EC50 came to 1700 nM.
Take `Clc1ccc(Cn2nc(COCCN3CCCCC3)c3ccc(N4CCCCCCC4)nc32)cc1` [compound 1204]: the EC50 under setting [1] worked out at 5400 nM.
On the same count and under the same terms, for `Cn1nc(-c2c[nH]c(C3CCNCC3)n2)c2ccc(N3CCCCCC3)nc21` [compound 1094] the value was 6500 nM; for `Cn1nc(C(=O)NC2CCNCC2)c2ccc(N3CCCN(Cc4ccccc4)CC3)nc21` [compound 1049], 6100 nM.
The same measure, in the same setting: in the case of `CC(C1CC1)N1CCC(NC(=O)c2nn(C)c3nc(N4CCCCCCC4)ccc23)CC1` (centres unmarked) [compound 1311] it was 970 nM; in that of `CCC(CC)Oc1ccc2c(C(=O)NC3CCNCC3)nn(C)c2n1` [compound 816], 2400 nM; in that of `CC1CC(NC(=O)c2nn(Cc3ccc(Cl)cc3)c3nc(N4CCCCCC4)ccc23)CCN1` (centres unmarked) [compound 708], 2400 nM.
The same measure, in the same setting: for `Cn1nc(-c2nnc(C3CCCCN3CC3CCCCC3)o2)c2ccc(N3CCCCCCC3)nc21` (centres unmarked) [compound 1324] the value was 660 nM.
